How the values were obtained:
Assay type in all cases: functional, cell-based
A549 = assay: Antiproliferative activity against human A549 cells incubated for 48 hrs by MTT assay; settings: A549, 48 h
MCF7 = assay: Antiproliferative activity against human MCF7 cells incubated for 48 hrs by MTT assay; settings: MCF7, 48 h
SW480 = assay: Antiproliferative activity against human SW480 cells incubated for 48 hrs by MTT assay; settings: SW480, 48 h
SMMC-7721 = assay: Antiproliferative activity against human SMMC-7721 cells incubated for 48 hrs by MTT assay; settings: SMMC-7721, 48 h
HL-60 = assay: Antiproliferative activity against human HL-60 cells incubated for 48 hrs by MTT assay; settings: HL-60, 48 h
B16 = assay: Antiproliferative activity against […] cells incubated for 48 to 72 hrs by MTT assay; settings: Mus musculus
NCI-H1993 = assay: Antiproliferative activity against human NCI-H1993 cells incubated for 48 to 72 hrs by MTT assay
MKN-45 = assay: Antiproliferative activity against human MKN-45 cells incubated for 48 to 72 hrs by MTT assay
HepG2 = assay: Antiproliferative activity against human HepG2 cells incubated for 48 to 72 hrs by MTT assay

SMILES: COc1cc([C@@H]2c3cc4c(cc3[C@H](OC(=O)CCCCCNC(=O)CCCC[C@@H]3SC[C@@H]5NC(=O)N[C@@H]53)[C@H]3COC(=O)[C@H]23)OCO4)cc(OC)c1OC
- IC50 (A549): > 0.13 µM
- IC50 (MCF7): > 0.13 µM
- IC50 (SW480): > 0.13 µM
- IC50 (SMMC-7721): > 0.13 µM
- IC50 (HL-60): > 0.13 µM

SMILES: COc1cc(C(=O)/C=C/c2ccncc2)ccc1OCc1cn([C@H]2c3cc4c(cc3[C@@H](c3cc(OC)c(OC)c(OC)c3)[C@H]3C(=O)OC[C@@H]32)OCO4)nn1
- IC50 (B16): 0.13 µM
- IC50 (NCI-H1993): 0.13 µM
- IC50 (MKN-45): 0.13 µM
- IC50 (HepG2): 0.13 µM

SMILES: COc1cc([C@@H]2c3cc4c(cc3[C@@H](OC(=O)CCCCCNC(=O)CCCC[C@@H]3SC[C@@H]5NC(=O)N[C@@H]53)[C@H]3COC(=O)[C@H]23)OCO4)cc(OC)c1O
- IC50 (A549): > 0.13 µM
- IC50 (MCF7): > 0.13 µM
- IC50 (SW480): > 0.13 µM
- IC50 (SMMC-7721): > 0.13 µM
- IC50 (HL-60): > 0.13 µM

SMILES: COc1cc(C(=O)/C=C/c2ccc(N(C)C)cc2)ccc1OCc1cn([C@H]2c3cc4c(cc3[C@@H](c3cc(OC)c(OC)c(OC)c3)[C@H]3C(=O)OC[C@@H]32)OCO4)nn1
- IC50 (B16): 0.13 µM
- IC50 (NCI-H1993): 0.13 µM
- IC50 (MKN-45): 0.13 µM
- IC50 (HepG2): 0.13 µM

SMILES: COc1cc(C(=O)/C=C/c2ccc(C(F)(F)F)cc2)ccc1OCc1cn([C@H]2c3cc4c(cc3[C@@H](c3cc(OC)c(OC)c(OC)c3)[C@H]3C(=O)OC[C@@H]32)OCO4)nn1
- IC50 (B16): 0.13 µM
- IC50 (NCI-H1993): 0.13 µM
- IC50 (MKN-45): 0.13 µM
- IC50 (HepG2): 0.13 µM

SMILES: COc1cc([C@@H]2c3cc4c(cc3[C@@H](n3cc(COC(=O)CCCC[C@@H]5SC[C@@H]6NC(=O)N[C@@H]65)nn3)[C@H]3COC(=O)[C@H]23)OCO4)cc(OC)c1O
- IC50 (A549): > 0.13 µM
- IC50 (MCF7): > 0.13 µM
- IC50 (SW480): > 0.13 µM
- IC50 (SMMC-7721): > 0.13 µM
- IC50 (HL-60): > 0.13 µM

SMILES: COc1ccccc1/C=C/C(=O)c1ccc(OCc2cn([C@H]3c4cc5c(cc4[C@@H](c4cc(OC)c(OC)c(OC)c4)[C@H]4C(=O)OC[C@@H]43)OCO5)nn2)c(OC)c1
- IC50 (B16): 0.13 µM
- IC50 (NCI-H1993): 0.13 µM
- IC50 (MKN-45): 0.13 µM
- IC50 (HepG2): 0.13 µM

SMILES: COc1cc([C@@H]2c3cc4c(cc3[C@@H](OC(=O)CCCCCNC(=O)CCCC[C@@H]3SC[C@@H]5NC(=O)N[C@@H]53)[C@H]3COC(=O)[C@H]23)OCO4)cc(OC)c1OC
- IC50 (A549): > 0.13 µM
- IC50 (MCF7): > 0.13 µM
- IC50 (SW480): > 0.13 µM
- IC50 (SMMC-7721): > 0.13 µM
- IC50 (HL-60): > 0.13 µM

SMILES: COc1cc([C@@H]2c3cc4c(cc3[C@@H](NC(=O)CCCC[C@@H]3SC[C@@H]5NC(=O)N[C@@H]53)[C@H]3COC(=O)[C@H]23)OCO4)cc(OC)c1OC
- IC50 (A549): > 0.13 µM
- IC50 (MCF7): > 0.13 µM
- IC50 (SW480): > 0.13 µM
- IC50 (SMMC-7721): > 0.13 µM
- IC50 (HL-60): > 0.13 µM

SMILES: COc1cc(C(C)=O)ccc1OCc1cn([C@H]2c3cc4c(cc3[C@@H](c3cc(OC)c(OC)c(OC)c3)[C@H]3C(=O)OC[C@@H]32)OCO4)nn1
- IC50 (B16): 0.13 µM
- IC50 (NCI-H1993): 0.13 µM
- IC50 (MKN-45): 0.13 µM
- IC50 (HepG2): 0.13 µM

SMILES: COc1cc([C@@H]2c3cc4c(cc3[C@H](OC(=O)CCCC[C@@H]3SC[C@@H]5NC(=O)N[C@@H]53)[C@H]3COC(=O)[C@H]23)OCO4)cc(OC)c1OC
- IC50 (A549): > 0.13 µM
- IC50 (MCF7): > 0.13 µM
- IC50 (SW480): > 0.13 µM
- IC50 (SMMC-7721): > 0.13 µM
- IC50 (HL-60): > 0.13 µM

SMILES: COc1ccc(/C=C/C(=O)c2ccc(OCc3cn([C@H]4c5cc6c(cc5[C@@H](c5cc(OC)c(OC)c(OC)c5)[C@H]5C(=O)OC[C@@H]54)OCO6)nn3)c(OC)c2)cc1OC
- IC50 (B16): 0.13 µM
- IC50 (NCI-H1993): 0.13 µM
- IC50 (MKN-45): 0.13 µM
- IC50 (HepG2): 0.13 µM

SMILES: COc1cc(C(=O)/C=C/c2ccsc2)ccc1OCc1cn([C@H]2c3cc4c(cc3[C@@H](c3cc(OC)c(OC)c(OC)c3)[C@H]3C(=O)OC[C@@H]32)OCO4)nn1
- IC50 (B16): 0.13 µM
- IC50 (NCI-H1993): 0.13 µM
- IC50 (MKN-45): 0.13 µM
- IC50 (HepG2): 0.13 µM

SMILES: COc1cc(C(=O)/C=C/c2cc(OC)c(OC)c(OC)c2)ccc1OCc1cn([C@H]2c3cc4c(cc3[C@@H](c3cc(OC)c(OC)c(OC)c3)[C@H]3C(=O)OC[C@@H]32)OCO4)nn1
- IC50 (B16): 0.13 µM
- IC50 (NCI-H1993): 0.13 µM
- IC50 (MKN-45): 0.13 µM
- IC50 (HepG2): 0.13 µM

SMILES: COc1ccc(OC(C)(C)c2cn([C@H]3c4cc5c(cc4[C@@H](c4cc(OC)c(OC)c(OC)c4)[C@H]4C(=O)OC[C@@H]43)OCO5)nn2)cc1
- IC50 (B16): 0.13 µM
- IC50 (NCI-H1993): 0.13 µM
- IC50 (MKN-45): 0.13 µM
- IC50 (HepG2): 0.13 µM

SMILES: COc1cc([C@@H]2c3cc4c(cc3[C@@H](NC(=O)CCCCCNC(=O)CCCC[C@@H]3SC[C@@H]5NC(=O)N[C@@H]53)[C@H]3COC(=O)[C@H]23)OCO4)cc(OC)c1O
- IC50 (A549): > 0.13 µM
- IC50 (MCF7): > 0.13 µM
- IC50 (SW480): > 0.13 µM
- IC50 (SMMC-7721): > 0.13 µM
- IC50 (HL-60): > 0.13 µM

SMILES: COc1cc([C@@H]2c3cc4c(cc3[C@H](n3cc(CNC(=O)c5ccc(Cl)cc5)nn3)[C@H]3COC(=O)[C@H]23)OCO4)cc(OC)c1OC
- IC50 (B16): 0.13 µM
- IC50 (NCI-H1993): 0.13 µM
- IC50 (MKN-45): 0.13 µM
- IC50 (HepG2): 0.13 µM

SMILES: COc1cc([C@@H]2c3cc4c(cc3[C@@H](OC(=O)CCCC[C@@H]3SC[C@@H]5NC(=O)N[C@@H]53)[C@H]3COC(=O)[C@H]23)OCO4)cc(OC)c1OC
- IC50 (A549): > 0.13 µM
- IC50 (MCF7): > 0.13 µM
- IC50 (SW480): > 0.13 µM
- IC50 (SMMC-7721): > 0.13 µM
- IC50 (HL-60): > 0.13 µM

SMILES: COc1cc([C@@H]2c3cc4c(cc3[C@H](n3cc(CNC(=O)c5ccccc5Cl)nn3)[C@H]3COC(=O)[C@H]23)OCO4)cc(OC)c1OC
- IC50 (B16): 0.13 µM
- IC50 (NCI-H1993): 0.13 µM
- IC50 (MKN-45): 0.13 µM
- IC50 (HepG2): 0.13 µM

SMILES: COc1cc([C@@H]2c3cc4c(cc3[C@H](n3cc(C(C)(C)Oc5ccc([N+](=O)[O-])cc5)nn3)[C@H]3COC(=O)[C@H]23)OCO4)cc(OC)c1OC
- IC50 (B16): 0.13 µM
- IC50 (NCI-H1993): 0.13 µM
- IC50 (MKN-45): 0.13 µM
- IC50 (HepG2): 0.13 µM

SMILES: COc1cc(OC)c(OC)cc1/C=C/C(=O)c1ccc(OCc2cn([C@H]3c4cc5c(cc4[C@@H](c4cc(OC)c(OC)c(OC)c4)[C@H]4C(=O)OC[C@@H]43)OCO5)nn2)c(OC)c1
- IC50 (B16): 0.13 µM
- IC50 (NCI-H1993): 0.13 µM
- IC50 (MKN-45): 0.13 µM
- IC50 (HepG2): 0.13 µM

SMILES: COc1cc(C(=O)/C=C/c2ccc(F)cc2)ccc1OCc1cn([C@H]2c3cc4c(cc3[C@@H](c3cc(OC)c(OC)c(OC)c3)[C@H]3C(=O)OC[C@@H]32)OCO4)nn1
- IC50 (B16): 0.13 µM
- IC50 (NCI-H1993): 0.13 µM
- IC50 (MKN-45): 0.13 µM
- IC50 (HepG2): 0.13 µM

SMILES: COc1cc(C(=O)/C=C/c2cccs2)ccc1OCc1cn([C@H]2c3cc4c(cc3[C@@H](c3cc(OC)c(OC)c(OC)c3)[C@H]3C(=O)OC[C@@H]32)OCO4)nn1
- IC50 (B16): 0.13 µM
- IC50 (NCI-H1993): 0.13 µM
- IC50 (MKN-45): 0.13 µM
- IC50 (HepG2): 0.13 µM

SMILES: COc1cc([C@@H]2c3cc4c(cc3[C@@H](NC(=O)CCCCCNC(=O)CCCC[C@@H]3SC[C@@H]5NC(=O)N[C@@H]53)[C@H]3COC(=O)[C@H]23)OCO4)cc(OC)c1OC
- IC50 (A549): > 0.13 µM
- IC50 (MCF7): > 0.13 µM
- IC50 (SW480): > 0.13 µM
- IC50 (SMMC-7721): > 0.13 µM
- IC50 (HL-60): > 0.13 µM

SMILES: COc1cc([C@@H]2c3cc4c(cc3[C@@H](NC(=O)CCCC[C@@H]3SC[C@@H]5NC(=O)N[C@@H]53)[C@H]3COC(=O)[C@H]23)OCO4)cc(OC)c1O
- IC50 (A549): > 0.13 µM
- IC50 (MCF7): > 0.13 µM
- IC50 (SW480): > 0.13 µM
- IC50 (SMMC-7721): > 0.13 µM
- IC50 (HL-60): > 0.13 µM

Reference: ChEMBL document CHEMBL4818987, “Recent advances of podophyllotoxin/epipodophyllotoxin hybrids in anticancer activity, mode of action, and structure-activity relationship: An update (2010-2020)” (Eur J Med Chem, 2020)
